Experiments:
Experiment in all cases: Bliss excess, mean over the matrix (fraction); higher = more synergy
[1] = system: LU-65 (Non-Small Cell Lung Carcinoma)
Outline: (§1)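 Cell lines grown in DMEM/F12 or RPMI with 10% FBS were plated in 1536-well plates and held 24 hours at 37°C, 5% CO2 before 72 hours of exposure to two-drug dose matrices, with DMSO typically at 0.2%. CellTiter-Glo 2.0 luminescence gave viability, which was converted to inhibition. Vehicle wells were set to 0 and blank wells to 1. Combination Emax is the second-highest inhibition in the matrix, and Bliss excess is the observed combination effect minus the expected EA + EB − EA·EB, where EA and EB are the single-agent effects.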

[2] = system: HGC-27 (Gastric Carcinoma)
Outline: as §1

[3] = system: KMOE-2 (Acute Myeloid Leukemia)
Outline: as §1

[4] = system: SCC-15 (Oral Cavity Carcinoma)
Outline: as §1

[5] = system: SW13 (Other Solid Carcinomas)
Outline: as §1

UACC-62 (Melanoma) = system: UACC-62 (Melanoma)
Outline: as §1

[6] = system: SU8686 (Pancreatic Carcinoma)
Outline: as §1

[7] = system: OE19 (Esophageal Adenocarcinoma)
Outline: as §1

[8] = system: NCI-H358 (Lung Adenocarcinoma)
Outline: as §1

[9] = system: KARPAS-299 (T-Cell Non-Hodgkin's Lymphoma)
Outline: as §1

[10] = system: RF-48 (B-Cell Non-Hodgkin's Lymphoma)
Outline: as §1

[11] = system: AMO-1 (Plasma Cell Myeloma)
Outline: as §1

[12] = system: PANC-04-03 (Pancreatic Carcinoma)
Outline: as §1

[13] = system: NUGC-3 (Gastric Carcinoma)
Outline: as §1

[14] = system: OVCAR-4 (Ovarian Carcinoma)
Outline: as §1

PWR-1E (Non-Cancerous) = system: PWR-1E (Non-Cancerous)
Outline: as §1

ACHN (Kidney Carcinoma) = system: ACHN (Kidney Carcinoma)
Outline: as §1

[15] = system: NEC8 (Other Solid Carcinomas)
Outline: as §1

[16] = system: BT-549 (Breast Carcinoma)
Outline: as §1

[17] = system: HSC-4 (Oral Cavity Carcinoma)
Outline: as §1

Structure (SMILES)	Bliss excess [1]	Bliss excess [2]	Bliss excess [3]	Bliss excess [4]	Bliss excess [5]	Bliss excess (UACC-62 (Melanoma))	Bliss excess [6]	Bliss excess [7]	Bliss excess [8]	Bliss excess [9]	Bliss excess [10]	Bliss excess [11]	Bliss excess [12]	Bliss excess [13]	Bliss excess [14]	Bliss excess (PWR-1E (Non-Cancerous))	Bliss excess (ACHN (Kidney Carcinoma))	Bliss excess [15]	Bliss excess [16]	Bliss excess [17]
Cn1cnc2c(F)c(Nc3ccc(Br)cc3Cl)c(C(=O)NOCCO)cc21 [Selumetinib] + CCN(CCO)CCCOc1ccc2c(Nc3cc(CC(=O)Nc4cccc(F)c4)[nH]n3)ncnc2c1 [AZD2811] (first compound max 10 µM, 7x7, partner max 1 µM)	-0.0082	-0.0515	-0.0124	-0.0377	-0.0919	-0.0289	-0.0179	-0.0015	-0.0743	0.0227	-0.0305	0.0538	-0.0339	0.0179	-0.0468	-0.0175	0.0086	-0.0166	-0.0216	-0.0442
CCc1c2c(nc3ccc(O)cc13)-c1cc3c(c(=O)n1C2)COC(=O)[C@]3(O)CC [SN-38] + CN(C)CCCOc1ccc(-c2ccc3ncc4c(c3c2)n(C2CCOCC2)c(=O)n4C)cn1 [AZD0156] (first compound max 0.3 µM, 7x7, partner max 1 µM)	-0.0148	0.077	-0.0089	0.0092	0.0279	0.0077	-0.0327	0.159	0.0282	0.071	-0.0098	-0.103	-0.0226	0.0085	-0.0149	0.0948	-0.0134	-0.0228	-0.0888	-0.0346
CN(C)CCCOc1ccc(-c2ccc3ncc4c(c3c2)n(C2CCOCC2)c(=O)n4C)cn1 [AZD0156] + C[C@@H]1COCCN1C2=NC(=NC(=C2)C3(CC3)[S@](=N)(=O)C)C4=C5C=CNC5=NC=C4 [AZD6738] (first compound max 1 µM, 7x7, partner max 10 µM)	0.021	0.0357	-0.0252	-0.0209	0.0112	-0.0035	0.0025	0.0277	0.0219	-0.0283	0.0487	0.0146	-0.0398	0.064	0.0213	-0.0357	-0.0212	0.072	-0.0042	-0.0461
COc1nnc2ccc(N3CCC(c4ccc(OCCN5CCN(C)C(=O)[C@H]5C)cc4)CC3)nn12 [AZD5153] + CC1(C)CCC(CN2CCN(c3ccc(C(=O)NS(=O)(=O)c4ccc(NCC5CCOCC5)c([N+](=O)[O-])c4)c(Oc4cnc5[nH]ccc5c4)c3)CC2)=C(c2ccc(Cl)cc2)C1 [Venetoclax] (first compound max 1 µM, 7x7, partner max 1 µM)	-0.072	-0.0808	-0.0718	-0.0681	-0.0458	-0.0271	-0.0501	0.0029	-0.049	-0.0419	-0.0312	-0.0483	-0.0341	-0.0746	-0.0104	-0.0826	-0.0499	-0.0661	-0.0031	-0.0705
CCN(CCO)CCCOc1ccc2c(Nc3cc(CC(=O)Nc4cccc(F)c4)[nH]n3)ncnc2c1 [AZD2811] + C=CCn1c(=O)c2cnc(Nc3ccc(N4CCN(C)CC4)cc3)nc2n1-c1cccc(C(C)(C)O)n1 [AZD1775] (first compound max 1 µM, partner max 1 µM)	-0.0557	-0.0176	-0.0181	0.0237	0.0821	-0.029	-0.0166	-0.0152	-0.0312	0.0057	0.0041	-0.0276	-0.0441	0.0104	0.0107	0.118	0.0555	0.0471	0.017	-0.0467
CC1(C)CCC(CN2CCN(c3ccc(C(=O)NS(=O)(=O)c4ccc(NCC5CCOCC5)c([N+](=O)[O-])c4)c(Oc4cnc5[nH]ccc5c4)c3)CC2)=C(c2ccc(Cl)cc2)C1 [Venetoclax] + C1CN(CCC1(C(=O)N[C@@H](CCO)C2=CC=C(C=C2)Cl)N)C3=NC=NC4=C3C=CN4 [Capivasertib] (first compound max 1 µM, 7x7, partner max 3 µM)	-0.0377	-0.0002	0.0121	-0.0639	-0.0238	-0.0238	-0.0379	-0.016	-0.0591	-0.0004	0.0226	-0.0267	-0.0732	-0.0102	-0.0393	-0.0161	-0.0358	-0.0125	-0.0385	-0.0281
CC1(C)CCC(CN2CCN(c3ccc(C(=O)NS(=O)(=O)c4ccc(NCC5CCOCC5)c([N+](=O)[O-])c4)c(Oc4cnc5[nH]ccc5c4)c3)CC2)=C(c2ccc(Cl)cc2)C1 [Venetoclax] + CCN(CCO)CCCOc1ccc2c(Nc3cc(CC(=O)Nc4cccc(F)c4)[nH]n3)ncnc2c1 [AZD2811] (first compound max 1 µM, 7x7, partner max 1 µM)	-0.0556	0.0075	-0.0506	-0.0051	0.0311	-0.0027	-0.0364	-0.0176	-0.0315	0.0871	0.0498	0.0249	-0.0565	0.0083	0.0264	-0.0234	-0.0204	-0.007	-0.0111	-0.0694
C[C@@H]1COCCN1c1cc(C2([S@](C)(=N)=O)CC2)nc(-c2ccnc3[nH]ccc23)n1 [AZD6738] + O=C(c1cc(Cc2n[nH]c(=O)c3ccccc23)ccc1F)N1CCN(C(=O)C2CC2)CC1 [Olaparib] (first compound max 10 µM, 7x7, partner max 10 µM)	0.0026	0.0231	0.0413	0.0011	0.0093	0.0235	-0.0231	-0.133	-0.0276	-0.0073	-0.0422	-0.0316	0.0066	-0.0296	0.0035	-0.0632	-0.0791	0.0254	0.0032	-0.0172
CC1(C)CCC(CN2CCN(c3ccc(C(=O)NS(=O)(=O)c4ccc(NCC5CCOCC5)c([N+](=O)[O-])c4)c(Oc4cnc5[nH]ccc5c4)c3)CC2)=C(c2ccc(Cl)cc2)C1 [Venetoclax] + C[C@@H](Nc1cc(F)cc(F)c1)c1cc(C(=O)N(C)C)cc2c(=O)cc(N3CCOCC3)oc12 [AZD8186] (first compound max 1 µM, 7x7, partner max 3 µM)	-0.0235	-0.0256	-0.0254	-0.0348	-0.0263	0.0118	-0.0303	-0.0065	-0.0521	-0.0074	0.0481	-0.0065	-0.0374	-0.0192	-0.0186	-0.0112	-0.0208	-0.0197	-0.0328	-0.0369
CC(=O)Nc1cccc(-n2c(=O)n(C3CC3)c(=O)c3c(Nc4ccc(I)cc4F)n(C)c(=O)c(C)c32)c1 [Trametinib] + Cc1nc(-c2cn3c(n2)-c2ccc(-c4cnn(C(C)(C)C(N)=O)c4)cc2OCC3)n(C(C)C)n1 [Taselisib] (first compound max 1 µM, 7x7, partner max 10 µM)	0.0994	-0.062	0.066	0.171	0.316	-0.0422	0.094	0.158	0.095	0.25	0.0627	0.316	0.101	0.104	0.104	0.121	0.132	0.112	0.0203	0.105
COc1nnc2ccc(N3CCC(c4ccc(OCCN5CCN(C)C(=O)[C@H]5C)cc4)CC3)nn12 [AZD5153] + C=CCn1c(=O)c2cnc(Nc3ccc(N4CCN(C)CC4)cc3)nc2n1-c1cccc(C(C)(C)O)n1 [AZD1775] (first compound max 1 µM, partner max 1 µM)	-0.0806	-0.0229	0.0656	-0.0427	-0.0336	-0.0529	-0.0147	-0.0441	-0.113	-0.0336	-0.012	-0.0881	-0.106	-0.0249	-0.0935	-0.127	-0.0396	-0.0352	-0.0585	-0.0852
CC1(C)CCC(CN2CCN(c3ccc(C(=O)NS(=O)(=O)c4ccc(NCC5CCOCC5)c([N+](=O)[O-])c4)c(Oc4cnc5[nH]ccc5c4)c3)CC2)=C(c2ccc(Cl)cc2)C1 [Venetoclax] + Cc1cc2ncnn2cc1Nc1ncc2c(n1)n(C1CCOCC1)c(=O)n2C [AZD7648] (first compound max 1 µM, 7x7, partner max 10 µM)	-0.0418	-0.0261	-0.0596	-0.0303	0.0127	-0.0424	-0.0195	-0.0253	-0.0207	0.0487	-0.0106	-0.0116	-0.0617	0.0247	-0.0163	-0.0152	-0.0244	0.0282	-0.0328	-0.058

Reference: the supplement of paper PMC11061612
